Consider twelve molecules from patent US20100303758A1, “Novel Glucocorticoid Receptor Agonists” (priority 2009, published 2010).

Type in all cases: cell-based
One assay concerns the target T1, human GR (Homo sapiens, UniProt P04150).
T1 construct: SW1353 naturally expresses human GR; endogenous in cells; host or cells: human chondrosarcoma cell-line SW1353 stably transfected with an MMTV-luciferase reporter construct
T1 sequence (P04150 1-777): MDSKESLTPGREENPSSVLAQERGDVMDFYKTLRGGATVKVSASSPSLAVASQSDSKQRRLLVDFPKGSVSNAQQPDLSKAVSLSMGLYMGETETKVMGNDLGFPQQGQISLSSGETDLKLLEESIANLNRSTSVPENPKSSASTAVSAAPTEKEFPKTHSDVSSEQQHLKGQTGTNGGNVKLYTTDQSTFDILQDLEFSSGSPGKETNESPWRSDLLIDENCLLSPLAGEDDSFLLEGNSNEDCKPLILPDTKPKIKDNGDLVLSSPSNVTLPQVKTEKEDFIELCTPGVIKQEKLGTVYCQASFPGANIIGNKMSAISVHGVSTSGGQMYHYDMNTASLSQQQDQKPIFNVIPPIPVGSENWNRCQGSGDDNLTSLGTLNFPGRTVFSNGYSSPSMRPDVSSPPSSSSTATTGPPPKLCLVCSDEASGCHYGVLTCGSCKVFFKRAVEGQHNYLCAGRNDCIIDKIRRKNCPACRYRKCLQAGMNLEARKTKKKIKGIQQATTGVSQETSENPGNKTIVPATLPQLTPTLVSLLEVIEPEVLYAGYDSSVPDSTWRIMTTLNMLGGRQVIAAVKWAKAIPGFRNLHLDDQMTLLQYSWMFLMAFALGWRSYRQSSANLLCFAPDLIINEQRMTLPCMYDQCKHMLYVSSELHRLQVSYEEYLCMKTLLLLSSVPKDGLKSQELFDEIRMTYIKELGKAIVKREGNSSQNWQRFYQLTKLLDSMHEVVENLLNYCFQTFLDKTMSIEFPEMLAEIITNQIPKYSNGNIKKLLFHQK
Description: GR agonist potency, MMTV-luciferase reporter in SW1353 cells. The note with it: human chondrosarcoma cell-line SW1353 stably transfected with MMTV-luciferase reporter; approx. 18 hours; data as percentage of 1 μM dexamethasone positive control. The procedure, abridged:
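SW1353 chondrosarcoma cells stably carrying MMTV-luciferase, endogenous GR, exposed to compound ~18 h at 37 °C. Luminescence expressed as percent of 1 μM dexamethasone response; EC50 estimated from dose-response curves.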

Assay [1] concerns tumour necrosis factor-α (TNF-α) release from lipopolysaccharide (LPS) stimulated isolated human peripheral mononuclear cells (PBMC). As to the kind of experiment: Inhibition of TNF-α release from LPS stimulated isolated human PBMC. The note with it: LPS stimulated human PBMC; 1 h pre-incubation, 18 hours after LPS; TNF-α by ELISA. The procedure, abridged: (§1)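 Human PBMC from EDTA blood of healthy donors, at 1×10^6 lymphocytes/ml in HBSS/HEPES/BSA buffer, were preincubated with compound (1% DMSO final) for 1 h at 37° C, then stimulated with LPS (added as 100 ng/ml solution) for 18 hours. Supernatant TNF-α was measured by ELISA, and IC50 was derived from dose-response curves.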

Experiment in assay [2]: as above
The note with it: Homo sapiens, PBMC, read-out: IC50 (nM) for inhibition of TNF-α release. The procedure, abridged: as §1

Broadly, the EC50 is the concentration that produces a half-maximal response. In general, IC50 refers to the midpoint of a concentration-inhibition curve. As for `CC12C=CC(=O)C=C1CCC1C3CCC(OC(=O)c4ccc(Oc5ccc(Cl)c(O)c5)cc4)(C(=O)OCC#N)C3(C)CC(O)C12F` (stereo not drawn) [Example 34, cyanomethyl (11beta,17alpha)-17-{[4-(4-chloro-3-hydroxyphenoxy)-benzoyl]oxy}-9-fluoro-11-hydroxy-oxoandrosta-1,4-diene-17-carboxylate], the response on human GR was half-maximal at 100 nM (EC50). In assay [1], this molecule came in with an IC50 of 0.278 nM.

In assay [1], `CC12C=CC(=O)C=C1CCC1C3CCC(OC(=O)c4ccc(Cc5ccccc5)cc4)(C(=O)OCC#N)C3(C)CC(O)C12F` (centres unmarked) [Example 9] yielded an IC50 of 0.21 nM.

`CC12C=CC(=O)C=C1CCC1C3CCC(OC(=O)c4ccc(Sc5ccc(O)cc5)cc4)(C(=O)OCC#N)C3(C)CC(O)C12F` (stereo not drawn) [Example 18, cyanomethyl (11beta,17alpha)-9-fluoro-11-hydroxy-17-({4-[(4-hydroxyphenyl)thio]benzoyl}oxy)-3-oxoandrosta-1,4-d iene-17-carboxylate] showed a concentration for a half-maximal effect (EC50) at human GR of 34.9 nM. In assay [1], this molecule returned a half-inhibitory concentration (IC50) of 0.138 nM.

In turn, `C[C@]12C=CC(=O)C=C1CC[C@H]1[C@@H]3CC[C@](OC(=O)c4ccc(Sc5ccccc5O)cc4)(C(=O)OCC#N)[C@@]3(C)C[C@H](O)[C@@]12F` [Example 35, cyanomethyl (11beta,17alpha)-9-fluoro-11-hydroxy-17-({4-[(2-hydroxyphenyl)thio]benzoyl}oxy)-3-oxoandrosta-1,4-diene-17-carboxylate] yielded a 50% effective concentration (EC50) at human GR of 75.2 nM. The IC50 in assay [2] came to 0.099 nM. Turning to `C[C@]12C=CC(=O)C=C1CC[C@H]1[C@@H]3CC[C@](OC(=O)c4ccc(Oc5ccc(Cl)c(O)c5)cc4)(C(=O)SCF)[C@@]3(C)C[C@H](O)[C@@]12F` [Example 40, (11beta,17alpha)-9-fluoro-17-{[(fluoromethyl)thio]carbonyl}-11-hydroxy-3-oxoandrosta-1,4-dien-17-yl 4-(4-chloro-3-hydroxyphenoxy)benzoate], at human GR, the concentration for a half-maximal effect (EC50) was determined as 31.2 nM. In assay [2], the IC50 was found to be 0.053 nM. On to `CSc1ccc(Oc2ccc(C(=O)OC3(C(=O)OCF)C(C)CC4C5CC(F)C6=CC(=O)C=CC6(C)C5(F)C(O)CC43C)cc2)cc1` (stereo not drawn) [Example 52, Fluoromethyl (6alpha,11beta,16alpha, 17alpha)-6,9-difluoro-11-hydroxy-16-methyl-17-({4-[4-(methylthio)phenoxy]benzoyl}oxy)-3-oxoandrosta-1,4-diene-17-carboxylate], for which the EC50 on human GR amounted to 6.05 nM. In addition, in assay [1], the IC50 is 0.033 nM. The molecule `CSc1cccc(Oc2ccc(C(=O)O[C@]3(C(=O)OCF)[C@H](C)C[C@H]4[C@@H]5C[C@H](F)C6=CC(=O)C=C[C@]6(C)[C@@]5(F)[C@@H](O)C[C@@]43C)cc2)c1` [Example 51, Fluoromethyl (6alpha,11beta,16alpha, 17alpha)-6,9-difluoro-11-hydroxy-16-methyl-17-({4-[3-(methylthio)phenoxy]benzoyl}oxy)-3-oxoandrosta-1,4-diene-17-carboxylate] showed a half-maximal effective concentration (EC50) at human GR of 8.7 nM. Moreover, the IC50 in assay [2] turned out to be 0.057 nM.

On to `C[C@@H]1C[C@H]2[C@@H]3C[C@H](F)C4=CC(=O)C=C[C@]4(C)[C@@]3(F)[C@@H](O)C[C@]2(C)[C@@]1(OC(=O)c1ccc(Oc2ccc(O)c(Cl)c2)cc1)C(=O)OCC#N` [Example 45, cyanomethyl(6alpha,11beta,16alpha,17alpha)-17-{[4-(3-chloro-4-hydroxyphenoxy)benzoyl]oxy}-6,9-difluoro-11-hydroxy-16-methyl-3-oxoandrosta-1,4-diene-17-carboxylate], for which the EC50 on human GR was 21.3 nM. For the same molecule, in assay [2], the IC50 was 0.155 nM. `C[C@@H]1C[C@H]2[C@@H]3CCC4=CC(=O)C=C[C@]4(C)[C@@]3(F)[C@@H](O)C[C@]2(C)[C@@]1(OC(=O)c1ccc(Oc2ccc(O)c(Cl)c2)cc1)C(=O)SCF` [Example 43, (11beta,16alpha,17alpha)-9-fluoro-17-{[(fluoromethyl)thio]carbonyl}-11-hydroxy-16-methyl-3-oxoandrosta-1,4-dien-17-yl 4-(3-chloro-4-hydroxyphenoxy)benzoate] showed an EC50 on human GR of 26.4 nM. In assay [2], the IC50 is 0.06 nM. On the same counts, the results for `C[C@]12C=CC(=O)C=C1CC[C@H]1[C@@H]3CC[C@](OC(=O)c4ccc(Sc5ccc(Cl)c(O)c5)cc4)(C(=O)SCC#N)[C@@]3(C)C[C@H](O)[C@@]12F` [Example 38, (11beta,17alpha)-17-{[(cyanomethyl)thio]carbonyl}-9-fluoro-11-hydroxy-3-oxoandrosta-1,4-dien-17-yl 4-[(4-chloro-3-hydroxyphenyl)thio]benzoate] are 54.7 nM and 0.755 nM. In the same order, the values of `C[C@]12C=CC(=O)C=C1CC[C@H]1[C@@H]3CC[C@](OC(=O)c4ccc(Oc5ccccc5)cc4O)(C(=O)OCC#N)[C@@]3(C)C[C@H](O)[C@@]12F` [Example 21, cyanomethyl(11beta,17alpha)-9-fluoro-11-hydroxy-17-[(2-hydroxy-4-phenoxybenzoyl)oxy]-3-oxoandrosta-1,4-diene-17-carboxylate] are 49 nM and 0.656 nM. Take `C[C@]12C=CC(=O)C=C1CC[C@H]1[C@@H]3CC[C@](OC(=O)c4ccc(-c5ccccc5)cc4)(C(=O)OCC#N)[C@@]3(C)C[C@H](O)[C@@]12F` [Example 7, cyanomethyl (11beta,17alpha)-17-[(biphenyl-4-ylcarbonyl)oxy]-9-fluoro-11-hydroxy-3-oxoandrosta-1,4-diene-17-carboxylate]: the EC50 at human GR is 39.9 nM. Also, the IC50 in assay [2] turned out to be 0.555 nM.
